Source: patent US20240016777A1, “COMPOUNDS AND METHODS FOR TREATING VIRAL INFECTIONS” (priority 2020, published 2024)

Biological target: SARS-CoV-2 M^pro (Severe acute respiratory syndrome coronavirus 2 (2019-nCoV) (SARS-CoV-2), UniProt P0DTD1)
Assay: biochemical
Conditions: compound at 17 μM, duplicates, 20 min pre-incubation

Row | Structure (SMILES) | Activity (% enzyme activity by fluorescence relative to initial enzyme activity)
1 | O=c1cc(-c2ccc(O)cc2)oc2c([C@@H]3O[C@H](CO)[C@@H](O)[C@H](O)[C@H]3O)c(O)c([C@@H]3OC[C@H](O)[C@H](O)[C@H]3O)c(O)c12 [Isoschaftoside] | ++ (enzyme activity as indicated by fluorescence measurements ≥10% and <80%)

Same assay, conditions: compound at 17 μM, duplicates, 20 min pre-incubation; read-out: Activity (% enzyme activity by fluorescence relative to initial enzyme activity)

Row | Structure (SMILES) | remaining activity at 17 µM
2 | CC(C)=CCc1c2c(c3occ(-c4ccc(O)cc4)c(=O)c3c1O)C=CC(C)(C)O2 [Osajin] | > 80%
3 | CC(C)=CCCC1=C[C@@H](c2c(O)cc3oc(-c4ccc(O)cc4O)cc(=O)c3c2O)[C@H](C(=O)c2ccc(O)cc2O)[C@@H](c2ccc(O)cc2O)C1 [Multicaulisin] | < 10%
4 | O=c1c(O)c(-c2ccc(O[C@@H]3O[C@H](CO)[C@@H](O)[C@H](O)[C@H]3O)cc2)oc2cc(O)cc(O)c12 [Kaempferol-4′-O-beta-D-glucopyranoside] | 10 to 80%
5 | CC(C)=CCc1c(O)ccc(C(=O)[C@@H]2C(c3c(O)cc(O)c4c(=O)c(CC=C(C)C)c(-c5ccc(O)cc5O)oc34)C=C(C)CC2c2ccc(O)cc2O)c1O (stereo partly shown) [Kuwanon H] | 10 to 80%
6 | CC(C)=CCC/C(C)=C/Cc1c(-c2ccc(O)cc2O)oc2cc(O)cc(O)c2c1=O [5,7,2′,4′-Tetrahydroxy-3-geranylflavone] | 10 to 80%
7 | CC(C)=CCc1cc([C@@H]2CC(=O)c3c(O)cc(O)c(CC=C(C)C)c3O2)c(O)cc1O [Euchrestaflavanone B] | 10 to 80%
8 | COc1cc(O)c(CC=C(C)C)c2c1C(=O)C[C@@H](c1ccc(O)cc1)O2 [Isoxanthohumol] | > 80%
9 | CC(C)=CCc1c(O)cc(O)c2c(=O)cc(-c3ccc(O)cc3)oc12 [Licoflavone C] | > 80%
10 | CC(C)=CCc1c2c(c(O)c3c(=O)c(-c4ccc(O)c(O)c4)coc13)CC(C(C)(C)O)O2 (stereo not shown) [furowanin A] | 10 to 80%
11 | CC(C)=CCc1c(O)ccc(-c2coc3cc(O)cc(O)c3c2=O)c1O [Licoisoflavone A] | > 80%

Same assay, conditions: compounds evaluated at 0.015-300 μM; read-out: IC50

Row | Structure (SMILES) | IC50
12 | CC(C)=CCCC1=C[C@@H](c2c(O)cc3oc(-c4ccc(O)cc4O)cc(=O)c3c2O)[C@H](C(=O)c2ccc(O)cc2O)[C@@H](c2ccc(O)cc2O)C1 [Multicaulisin] | 17 µM
13 | O=c1c(O)c(-c2ccc(O[C@@H]3O[C@H](CO)[C@@H](O)[C@H](O)[C@H]3O)cc2)oc2cc(O)cc(O)c12 [Kaempferol-4′-O-beta-D-glucopyranoside] | 12 µM
14 | O=c1cc(-c2ccc(O)cc2)oc2c([C@@H]3O[C@H](CO)[C@@H](O)[C@H](O)[C@H]3O)c(O)c([C@@H]3OC[C@H](O)[C@H](O)[C@H]3O)c(O)c12 [Isoschaftoside] | 20 µM
15 | CC(C)=CCc1cc([C@@H]2CC(=O)c3c(O)cc(O)c(CC=C(C)C)c3O2)c(O)cc1O [Euchrestaflavanone B] | 96 µM
16 | CC(C)=CCc1c2c(c(O)c3c(=O)c(-c4ccc(O)c(O)c4)coc13)CC(C(C)(C)O)O2 (stereo not shown) [furowanin A] | 7 µM

Same assay, conditions: read-out: Activity (% enzyme activity by fluorescence relative to initial enzyme activity), compound at 17 μM, duplicates, 20 min pre-incubation

Row | Structure (SMILES) | remaining activity at 17 µM
17 | O=C1c2c(O)cc(O)cc2O[C@H](c2ccc(O)cc2O)[C@H]1O [Dihydromorin] | > 80%
18 | CC(C)=CCc1c(O)cc(O)c2c(=O)c(-c3ccc(O)cc3)coc12 [Lupiwighteone] | > 80%
19 | CC(C)=CCc1c(O[C@@H]2O[C@H](CO)[C@@H](O)[C@H](O)[C@H]2O)cc(O)c2c(=O)c(O[C@@H]3O[C@@H](C)[C@H](O)[C@@H](O)[C@H]3O)c(-c3ccc(O)cc3)oc12 [Epimedoside A] | > 80%
20 | CC(C)=CCCC1(C)C=Cc2c(ccc([C@@H]3CC(=O)c4c(O)cc(O)cc4O3)c2O)O1 (stereo partly shown) [Sanggenon N] | > 80%
21 | COc1ccc(-c2oc3c(CC=C(C)C)c(O)cc(O)c3c(=O)c2O)cc1 [Icaritin] | > 80%
22 | COc1cc2c(c(OC)c1CC=C(C)C)C[C@H](c1ccc(O)c(CC=C(C)C)c1O)CO2 [Licorisoflavan A] | 10 to 80%
23 | COc1ccc(-c2oc3c(CC=C(C)C)c(O[C@@H]4O[C@H](CO)[C@@H](O)[C@H](O)[C@H]4O)cc(O)c3c(=O)c2O[C@@H]2O[C@@H](C)[C@H](O)[C@@H](O)[C@H]2O[C@@H]2OC[C@@H](O)[C@H](O)[C@H]2O)cc1 [Epimedin B] | 10 to 80%
24 | CC(C)=CCc1cc([C@@H]2CC(=O)c3ccc(O)c(CC=C(C)C)c3O2)cc(CC=C(C)C)c1O [(−)-Sophoranone] | 10 to 80%
25 | COc1cc(O)c(-c2coc3cc(O)ccc3c2=O)c(OC)c1CC=C(C)C [Licoricone] | > 80%
26 | CC(C)=CCc1c(O)c(CC=C(C)C)c2occ(-c3ccc(O)cc3O)c(=O)c2c1O [8-Prenylluteone] | > 80%
27 | CC(C)=CCc1cc(-c2oc3cc(O)cc(O)c3c(=O)c2O)ccc1O [Isolicoflavonol] | 10 to 80%
28 | CC(C)=CCc1cc(C2CC(=O)c3c(O)cc(O)cc3O2)c(CC=C(C)C)c(O)c1O (racemic) [(+/−)-Sigmoidin A] | 10 to 80%
29 | C=C(C)[C@H](CC=C(C)C)Cc1c(O)c(CC=C(C)C)c(O)c2c1O[C@H](c1ccc(O)cc1O)[C@@H](O)C2=O [kushenol M] | > 80%
30 | CC(C)=CCc1c(O)cc2c(c1O)C(=O)C[C@@H](c1ccc(O)cc1)O2 [6-Prenylnaringenin] | > 80%
31 | CC(C)=CC[C@]12Oc3cc(O)c([C@H]4C=C(C)C[C@H](c5ccc(O)cc5O)[C@H]4C(=O)c4cc(O)cc(O)c4)c(O)c3C(=O)[C@@]1(O)Oc1cc(O)ccc12 [Sanggenone C] | < 10%
32 | COc1ccc([C@@H]2CC(=O)c3c(O)cc(O)c(CC=C(C)C)c3O2)cc1O (stereo in doubt) [5,7,3′-Trihydroxy-4′-methoxy-8-prenylflavanone] | > 80%
33 | CC(C)=CCc1c(-c2ccc(O)cc2O)oc2cc(O)cc(O)c2c1=O [Albanin A] | > 80%
34 | CC(C)=CCc1c2c(c(O)c3c(=O)c(-c4ccc(O)cc4)coc13)C=CC(C)(C)O2 [warangalone] | 10 to 80%
35 | CC(C)=CCc1c([C@@H]2CCc3ccc(O)cc3O2)cc2c(c1O)OC(C)(C)C=C2 [Kazinol B] | > 80%
36 | COc1c(O)cc2oc(-c3ccc(O)c(CC=C(C)C)c3)c(OC)c(=O)c2c1O [5,7,4-Trihydroxy-3,6-dimethoxy-3-prenylflavone] | > 80%
37 | C=C(C)[C@H](CC=C(C)C)Cc1c(O)cc(O)c2c1O[C@H](c1ccc(O)cc1O)CC2=O [Kushenol F] | > 80%
38 | C=C(C)C(O)Cc1cc(-c2oc3cc(O)c(OC)c(O)c3c(=O)c2OC)cc(CCC(C)CO)c1O (stereo not shown) [Dodoviscin A] | > 80%
39 | CC(C)=CCc1cc(-c2coc3cc(O)cc(O)c3c2=O)cc(CC=C(C)C)c1O [3′,5′-Diprenylgenistein] | > 80%
40 | CC(C)=CCc1cc(-c2cc(=O)c3c(O)cc(O)c(CC=C(C)C)c3o2)ccc1O [8,3′-Diprenylapigenin] | < 10%

Row | Structure (SMILES) | remaining activity at 17 µM
41 | CC(C)=CC[C@]12Oc3cc(O)c([C@@H]4C=C(C)C[C@H](c5ccc(O)cc5O)[C@H]4C(=O)c4cc(O)cc(O)c4)c(O)c3C(=O)[C@@]1(O)Oc1cc(O)ccc12 [Sanggenone D] | < 10%
42 | CC(C)=CCc1cc([C@@H]2CCc3ccc(O)cc3O2)c(CC=C(C)C)c(O)c1O [Kazinol A] | > 80%
43 | CC(C)=CCC/C(C)=C/Cc1c(O)ccc(-c2oc3cc(O)cc(O)c3c(=O)c2CC=C(C)C)c1O [3′-Geranyl-3-prenyl-2′,4′,5,7-tetrahydroxyflavone] | 10 to 80%
44 | C=C(C)C(O)Cc1c(O)c(CC=C(C)C)c(O)c2c(=O)c(-c3ccc(O)cc3)coc12 (stereo not shown) [Erysenegalensein E] | > 80%
45 | COc1c(-c2ccc(O)c(O)c2)oc2c(C/C=C(\C)CCC=C(C)C)c(O)cc(O)c2c1=O [5,7,3′,4′-Tetrahydroxy-3-methoxy-8-geranylflavone] | > 80%
46 | CC(C)=CCc1c(O[C@@H]2O[C@H](CO)[C@@H](O)[C@H](O)[C@H]2O)cc(O)c2c1O[C@H](c1ccc(O)cc1)CC2=O [Flavaprin] | > 80%
47 | CC(C)=CCc1c(O)cc(O)c2c1O[C@H](c1ccccc1)CC2=O [Glabranin] | > 80%
48 | COc1c(O)cc2oc(-c3cc(CC=C(C)C)c4c(c3)CC(O)C(C)(C)O4)c(OC)c(=O)c2c1O (stereo not shown) [Dodovisone A] | > 80%
49 | CC(C)=CCc1c(O)cc(O)c2c1O[C@H](c1ccccc1)[C@@H](O)C2=O [Glepidotin B] | > 80%
50 | CC(C)=CCc1cc(-c2oc3cc(O)c(CC=C(C)C)c(O)c3c(=O)c2O)cc(O)c1O [broussonol E] | > 80%
51 | CC(C)=CCc1c(O)cc(O)c2c(=O)c(O[C@@H]3O[C@@H](C)[C@H](O)[C@@H](O)[C@H]3O[C@@H]3OC[C@@H](O)[C@H](O)[C@H]3O)c(-c3ccc(O)cc3)oc12 [Ikarisoside F] | 10 to 80%
52 | CC(C)=CCC/C(C)=C/Cc1cc(-c2coc3cc(O)ccc3c2=O)ccc1O [Corylifol A] | > 80%
53 | CC(C)=CCc1cc(-c2coc3cc(O)c(CC=C(C)C)c(O)c3c2=O)ccc1O [Lupalbigenin] | > 80%
54 | COc1c(CC=C(C)C)c(O)cc(O)c1-c1coc2cc(O)ccc2c1=O [Glicoricone] | > 80%
55 | COc1c2c(cc(O)c1CC=C(C)C)OCC(c1ccc(O)cc1O)=C2 [Dehydroglyasperin C] | > 80%
56 | CC(C)=CCc1c([C@H]2CCc3ccc(O)cc3O2)ccc(O)c1O [Kazinol U] | > 80%
57 | CC(C)=CCC/C(C)=C/Cc1c(O)ccc(C2CC(=O)c3c(O)cc(O)cc3O2)c1O (stereo not shown) [sanggenol A] | 10 to 80%
58 | C=C(C)[C@H](CCC(C)(C)O)Cc1c(O)cc(OC)c2c1O[C@H](c1ccc(O)cc1O)CC2=O [Kurarinol] | > 80%
59 | COc1ccc2c(c1CC=C(C)C)O[C@H](c1ccc(O)cc1O)CC2 (stereo in doubt) [2′,4′-Dihydroxy-7-methoxy-8-prenylflavan] | > 80%
60 | COc1cc(O)c2c(=O)c(O)c(-c3ccc(O)cc3)oc2c1CC=C(C)C [Isoanhydroicaritin] | > 80%
61 | CC(C)=CCc1c(-c2ccc(O)cc2O)oc2c(CC=C(C)C)c(O)cc(O)c2c1=O [Mulberrin] | > 80%
62 | CC(C)=CCc1c(O)ccc2c1O[C@H]1c3ccc(O)cc3OC[C@@H]21 [Phaseollidin] | > 80%
63 | COc1ccc(-c2oc3c(CC=C(C)C)c(O)cc(O)c3c(=O)c2O[C@@H]2O[C@@H](C)[C@H](O)[C@@H](O)[C@H]2O)cc1 [Baohuoside I] | 10 to 80%
64 | COc1ccc(-c2oc3c(CC=C(C)C)c(O[C@@H]4O[C@H](CO)[C@@H](O)[C@H](O)[C@H]4O)cc(O)c3c(=O)c2O[C@@H]2O[C@@H](C)[C@H](O)[C@@H](O)[C@H]2O)cc1 [Icariin] | 10 to 80%
